Assay results from ChEMBL document CHEMBL1201862, “PubChem BioAssay data set” (2004).
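96-well plates; 48 h exposure; 5 concentrations. Endpoints by linear interpolation between flanking doses. Not reached: highest tested concentration assigned. At the GI50, growth is halved.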 Active and inactive are the calls of the source. No stated cut-off is given here; in the data, active = GI50 up to about 1.1 µM and inactive = higher.

Key:
Experiment in all cases: DTP human tumour cell line panel, 48 h
[1] = test system: KM-20L2
[2] = test system: COLO 205
[3] = test system: U-251
[4] = test system: KM12
[5] = test system: UACC-257
[6] = test system: SW-620
[7] = test system: CAKI-1
[8] = test system: UACC-62
[9] = test system: NCI-H460
[10] = test system: HCT-116
[11] = test system: SF-539
[12] = test system: DMS-114
[13] = test system: RPMI-8226
[14] = test system: LOX IMVI
[15] = test system: SF-268
[16] = test system: HL-60
[17] = test system: MDA-N
[18] = test system: PC-3
[19] = test system: Hs-578T

| SMILES | GI50 [1] | GI50 [2] | GI50 [3] | GI50 [4] | GI50 [5] | GI50 [6] | GI50 [7] | GI50 [8] | GI50 [9] | GI50 [10] | GI50 [11] | GI50 [12] | GI50 [13] | GI50 [14] | GI50 [15] | GI50 [16] | GI50 [17] | GI50 [18] | GI50 [19] |
| --- | --- | --- | --- | --- | --- | --- | --- | --- | --- | --- | --- | --- | --- | --- | --- | --- | --- | --- | --- |
| CN(C)C(=O)N(CCCl)N=O | > 100 µM (inactive) | > 100 µM (inactive) | > 100 µM (inactive) | > 100 µM (inactive) | > 100 µM (inactive) | > 100 µM (inactive) | > 100 µM (inactive) | > 100 µM (inactive) | > 100 µM (inactive) | > 100 µM (inactive) | > 100 µM (inactive) | > 100 µM (inactive) | > 100 µM (inactive) | > 100 µM (inactive) | > 100 µM (inactive) | > 100 µM (inactive) |  |  |  |
| CCCCc1nccc2c(C)c3[nH]c4ccccc4c3cc12 | 2.86 µM (inactive) | 0.92 µM (active) | 3.37 µM (inactive) | 3.09 µM (inactive) | 2.42 µM (inactive) | 2.26 µM (inactive) | 2.59 µM (inactive) | 2.8 µM (inactive) | 2.17 µM (inactive) | 1.77 µM (inactive) | 2.45 µM (inactive) | 1.59 µM (inactive) | 2 µM (inactive) | 1.5 µM (inactive) | 5.87 µM (inactive) | 1.83 µM (inactive) |  |  |  |
| CN1c2ccccc2N(C)C23N(C)c4ccccc4N(C)C12N(C)c1ccccc1N3C (stereo not drawn) | > 100 µM (inactive) | > 100 µM (inactive) | > 100 µM (inactive) | > 100 µM (inactive) | > 100 µM (inactive) | > 100 µM (inactive) | > 100 µM (inactive) | > 100 µM (inactive) | > 100 µM (inactive) | > 100 µM (inactive) | > 100 µM (inactive) | > 100 µM (inactive) |  | > 100 µM (inactive) | > 100 µM (inactive) | > 100 µM (inactive) |  |  |  |
| CC1=NOC(=O)/C1=C/c1ccc([N+](=O)[O-])cc1 | > 100 µM (inactive) | > 100 µM (inactive) | > 100 µM (inactive) | > 100 µM (inactive) | > 100 µM (inactive) | 59 µM (inactive) | > 100 µM (inactive) | > 100 µM (inactive) | > 100 µM (inactive) | > 100 µM (inactive) | > 100 µM (inactive) | > 100 µM (inactive) |  | > 100 µM (inactive) | > 100 µM (inactive) | > 100 µM (inactive) |  |  |  |
| CN1CCc2cc(O)c3cc2C1Cc1ccc(cc1)Oc1cc(ccc1O)CC1c2c(cc4c(c2O3)OCO4)CCN1C (stereo not drawn) | 18.2 µM (inactive) | 13.5 µM (inactive) | 30.1 µM (inactive) | 29.9 µM (inactive) |  |  |  | 24.2 µM (inactive) | 46.2 µM (inactive) | 36.6 µM (inactive) | 17.3 µM (inactive) | 18.2 µM (inactive) |  |  | 33.1 µM (inactive) | 16.3 µM (inactive) |  |  |  |
| C=C(C[C@@H](O)[C@H](C)NC(=O)OCc1ccccc1)C(=O)OC(C)(C)C |  | > 100 µM (inactive) | > 100 µM (inactive) | > 100 µM (inactive) | 32.1 µM (inactive) | 39.7 µM (inactive) | 53.6 µM (inactive) | 51.2 µM (inactive) | > 100 µM (inactive) | > 100 µM (inactive) | 50 µM (inactive) |  | 29.8 µM (inactive) | 53.8 µM (inactive) | > 100 µM (inactive) | 26.3 µM (inactive) | 29.7 µM (inactive) | > 100 µM (inactive) | > 100 µM (inactive) |
| COc1cc(/C=C2\C[C@H]3[C@@H]4CC=C5C[C@@H](OC(C)=O)CC[C@]5(C)[C@H]4CC[C@]3(C)\C2=N\O)cc(OC)c1OC |  | 3.76 µM (inactive) | 7.41 µM (inactive) | 4.06 µM (inactive) | 5.74 µM (inactive) | 7 µM (inactive) | 3.33 µM (inactive) | 6.73 µM (inactive) | 4.08 µM (inactive) | 4.53 µM (inactive) | 4.33 µM (inactive) |  | 0.56 µM (active) | 4.32 µM (inactive) | 7.82 µM (inactive) | 2.88 µM (inactive) | 4.62 µM (inactive) | 2.54 µM (inactive) | 4.37 µM (inactive) |
| CCCCCOc1ccc(NC2=C(Cl)C(=O)c3c(O)ccc(O)c3C2=O)cc1 |  | 2.63 µM (inactive) | 6.38 µM (inactive) | 4.14 µM (inactive) | 6.15 µM (inactive) | 3.87 µM (inactive) | > 10 µM (inactive) | 5.42 µM (inactive) | 4.13 µM (inactive) | 2.88 µM (inactive) | 6.52 µM (inactive) |  | 2.43 µM (inactive) | 1.79 µM (inactive) | > 10 µM (inactive) | 1.37 µM (inactive) | 3.03 µM (inactive) | 5.25 µM (inactive) | 1.91 µM (inactive) |
| CC(C)=CCc1c2c(c(O)c3c(=O)c4c(oc13)-c1ccc(O)cc1OC4C=C(C)C)C=CC(C)(C)O2 (stereo not drawn) |  | 21 µM (inactive) | 12.2 µM (inactive) | 8.04 µM (inactive) | 15.4 µM (inactive) | 8.32 µM (inactive) | 20 µM (inactive) | 13.7 µM (inactive) | 13.7 µM (inactive) | 8.45 µM (inactive) | 17.2 µM (inactive) |  | 3.54 µM (inactive) | 8.61 µM (inactive) | 14.2 µM (inactive) | 15.2 µM (inactive) | 13.2 µM (inactive) | 12.1 µM (inactive) | 2.37 µM (inactive) |
| CSc1nc(=O)n(CCC#N)nc1SC |  | 19.5 µM (inactive) | > 100 µM (inactive) | > 100 µM (inactive) | > 10 µM (inactive) | 21 µM (inactive) | > 100 µM (inactive) | 32.3 µM (inactive) | > 100 µM (inactive) | 16.5 µM (inactive) | > 100 µM (inactive) |  | 22.8 µM (inactive) | 19.5 µM (inactive) | 27.9 µM (inactive) | 4.19 µM (inactive) | 20.4 µM (inactive) | 66.5 µM (inactive) | 27.6 µM (inactive) |
| O=S1(=O)C(=C(c2ccccc2)c2ccccc2)S(=O)(=O)c2ccccc21 | > 100 µM (inactive) | > 100 µM (inactive) | 51.6 µM (inactive) | > 100 µM (inactive) | > 100 µM (inactive) | > 100 µM (inactive) | > 87.5 µM (inactive) | > 72.1 µM (inactive) | > 100 µM (inactive) | > 100 µM (inactive) | 27.5 µM (inactive) | 65.3 µM (inactive) | > 100 µM (inactive) | > 100 µM (inactive) | > 72.6 µM (inactive) | > 100 µM (inactive) |  |  |  |
| Nc1nc(Cl)cc(NC2(CO)CCC2)n1 |  | > 100 µM (inactive) | > 100 µM (inactive) | > 100 µM (inactive) | > 100 µM (inactive) | > 100 µM (inactive) | 89.5 µM (inactive) | > 100 µM (inactive) | > 100 µM (inactive) | > 100 µM (inactive) | > 100 µM (inactive) |  | > 100 µM (inactive) | > 100 µM (inactive) | > 100 µM (inactive) | > 100 µM (inactive) | > 100 µM (inactive) | > 100 µM (inactive) | > 100 µM (inactive) |
| CCC12CCC(O)C1N(C)CCC2Sc1ccccc1 (stereo not drawn) | 41.3 µM (inactive) | 80 µM (inactive) | 78.2 µM (inactive) | 52.8 µM (inactive) | 61.2 µM (inactive) | > 100 µM (inactive) |  | > 100 µM (inactive) | > 100 µM (inactive) | 70 µM (inactive) | > 100 µM (inactive) | 82.4 µM (inactive) | 59.3 µM (inactive) | > 100 µM (inactive) | 75.5 µM (inactive) | 22.9 µM (inactive) |  |  |  |
| C/C(=N\Nc1nc2ccccc2[nH]1)c1ccc2ccccc2n1 |  | 3.15 µM (inactive) | 1.81 µM (inactive) | 2.08 µM (inactive) | 3.55 µM (inactive) | 3.58 µM (inactive) | 0.339 µM (active) | 2.6 µM (inactive) | 2.25 µM (inactive) | 1.95 µM (inactive) | 3.27 µM (inactive) |  | 0.897 µM (active) | 2.11 µM (inactive) | 1.97 µM (inactive) | 1.8 µM (inactive) | 3.97 µM (inactive) | 1.44 µM (inactive) | 10.8 µM (inactive) |
| NC1=NCC(CN2CCCCC2)O1 (stereo not drawn) |  | > 100 µM (inactive) | > 100 µM (inactive) | > 100 µM (inactive) | > 100 µM (inactive) | > 100 µM (inactive) | > 100 µM (inactive) | > 100 µM (inactive) | > 100 µM (inactive) | > 100 µM (inactive) | > 100 µM (inactive) |  | > 100 µM (inactive) | > 100 µM (inactive) | > 100 µM (inactive) | > 100 µM (inactive) | > 100 µM (inactive) | > 100 µM (inactive) | > 100 µM (inactive) |
| O=c1[nH]c(=O)n([C@H]2CCCO2)cc1F | 824 µM (inactive) | 673 µM (inactive) | 957 µM (inactive) | 813 µM (inactive) | 951 µM (inactive) | 887 µM (inactive) | 828 µM (inactive) | 569 µM (inactive) | 146 µM (inactive) | 406 µM (inactive) | 262 µM (inactive) | 673 µM (inactive) | 385 µM (inactive) | 685 µM (inactive) | 986 µM (inactive) | 644 µM (inactive) | 1200 µM (inactive) | 2510 µM (inactive) | 3230 µM (inactive) |
| Nc1ncn([C@H]2C[C@H](O)[C@@H](CO)O2)c(=O)n1 [DECITABINE] | > 375 µM (inactive) | 37.7 µM (inactive) | 102 µM (inactive) | 72.6 µM (inactive) | 34.9 µM (inactive) | 29 µM (inactive) | 219 µM (inactive) | 83.8 µM (inactive) | 6.59 µM (inactive) | 48.9 µM (inactive) | 92 µM (inactive) | 371 µM (inactive) | 54.7 µM (inactive) | 99.5 µM (inactive) | 119 µM (inactive) | > 24.8 µM (inactive) | 1.46 µM (inactive) | 9.57 µM (inactive) | 3.32 µM (inactive) |
